These results are taken from BindingDB's records for doi:10.1016/s0960-894x(99)00041-4 (1999).

Numbered stars: 1 amine (or outer) side, 2 acyl side, 3 side chain; on linkers, the order of the positions; unused ones are H or OH. Bridge positions count the residues as written; N and C are the ends. Square brackets hold non-standard residues; d marks the D form. Peptide text beside a SMILES is read from it. X1 = O=C([C@@]1(N[*:1])CCc2ccccc2C1)[*:2]; Atc(2S) = N[C@@]1(C(=O)O)CCc2ccccc2C1; Mpa = O=C(O)CCS; Sar = CNCC(=O)O

This test concerns the target Oxytocin receptor (Cavia porcellus). Briefly: Compound was evaluated for its dissociation constant (Kd) to guinea pig myometrial Oxytocin receptor.
For `CC[C@H](C)[C@@H]1NC(=O)[C@]2(CCc3ccccc3C2)NC(=O)CCSSC[C@@H](C(=O)N(C)CC(=O)N[C@@H](CCCN=C(N)N)C(=O)NCC(N)=O)NC(=O)[C@H](CC(N)=O)NC(=O)[C@H](CCC(N)=O)NC1=O` ([Mpa][X1]IQNC[Sar]RG-NH2; disulfide 1-6), the Kd – broadly, the free concentration of one partner at which half of the binding sites on the other are occupied at equilibrium, for simple one-to-one binding – worked out at 1920 nM.

The molecule `CC[C@H](C)[C@@H]1NC(=O)[C@@H](Cc2c[nH]c3ccccc23)NC(=O)CCSSC[C@@H](C(=O)N(C)CC(=O)N[C@@H](CCCNC(=N)N)C(=O)NCC(N)=O)NC(=O)[C@H](CC(N)=O)NC(=O)[C@H](CCC(N)=O)NC1=O` [Mpa-D-Trp-lle-Gln-Asn-Cys-Sar-Arg-Gly-NH2] came in with a Kd of 38 nM. This Kd lies about 51-fold lower than the previous one.

In turn, `CC[C@H](C)[C@@H]1NC(=O)[C@@]2(CCc3ccccc3C2)NC(=O)CCSSC[C@@H](C(=O)N(C)CC(=O)N[C@@H](CCCN=C(N)N)C(=O)NCC(N)=O)NC(=O)[C@H](CC(N)=O)NC(=O)[C@H](CCC(N)=O)NC1=O` ([Mpa][Atc(2S)]IQNC[Sar]RG-NH2; disulfide 1-6) gave a Kd of 370 nM.
